Test results published in patent publication US9259432B1, “Composition and methods for targeted delivery of a therapeutic compound to the brain or spinal cord of a subject for treatment of neurodegenerative diseases” (Parminder J. S. Vig, priority 2011, dated 2016).

Key:
[1] = system: differentiated GFP-ATXN1[82Q] SHSY5Y cells; experiment: Oxyblot of S100B induced oxidized proteins; format: cell-based; settings: 50 μM pretreatment 1 hr, then 5 μM S100B 2 hrs; oxidized protein/β-tubulin
Protocol: FIG. 16: (a) GFP-ATXN1[82Q] and (b) GFP-ATXN1[30Q] SHSY5Y stable cells were placed on 12-well plates and subjected to treatment with 25 nM TPA for 3 days to produce differentiated SHSY5Y cell lines. Next, the cells were pretreated with 50 μM Synb1-ELP-TRTK for 1 hr then treated with 5 μM S100B for 2 hrs or treated with 150 μM H2O2 for 2 hrs, where control cells were treated with serum free media for 3 hrs. Then the cells were lysed and analyzed with the Oxyblot kit and a β-tubulin antibody. Shown is the resulting oxyblot/western blot data. (c) Optical densities of the protein bands were taken using ImageJ software. Graphs shown the ratio of oxidized protein/β-tubulin protein normalized to the control. Statistics were taken using the student's t-test. * GFP-ATXN1[82Q]: S100B vs Synb1-ELP-TRTK+S100B, P<0.05. ψ GFP-ATXN1[82Q]: H2O2 vs GFP-ATXN1[30Q]: H2O2, P<0.05.
GFP-ATXN1[82Q] or GFP-ATXN1[30Q] stable cells were placed on 12-well plates at a concentration of 60,000 cells per well. Cells were treated with 25 nM TPA for 3 days to produce differentiated SHSY5Y cell lines. […] Cell lysates were analyzed with the Oxyblot kit according to manufacturer's protocol ([…]) and with a β-tubulin antibody (Sigma), where 5 μgs of protein was loaded in each well of 4-20% acrylamide gel (Bio-Rad Laboratories, Hercules, Calif., USA). […]

SCA1/+ mice = experiment: Bar cross test; format: in vivo; settings: IP, 10 doses every other day for 3 wks, with and without heat
Protocol: A minimum of five 2 wks old SCA1/+mice were treated IP with vehicle (saline), ELP-GGC or ELP-TRTK peptides multiple times (total 10 doses) every other day for 3 wks. Some animals were subjected to hyperthermia. After completion of the treatments, animals were subjected to behavioral tests.
Bar cross test. The bar-crossing apparatus for testing balance and fine motor coordination consisted of a horizontal U-shaped platform made of wood supported on 30 cm legs. The two parallel 30-cm-long bars of the U were wide enough (18 mm) for the mice to walk easily, whereas the piece connecting them, the challenge bar, was also 30 cm long but only 2 mm wide. Animals were placed on one of the wide bars and allowed to move about on the apparatus for 5 min. After the spontaneous activity portion of the bar cross test, animal were subjected to a forced task. In this task, the mice were placed in the middle of the challenge bar in order to force a crossing attempt. A maximum of 120 sec was allowed for mice to stay on the bar, and the latency to fall (on a padded surface; height=30 cm) or cross (Cross) successfully was measured in seconds. The surface of the apparatus was cleaned with mild soap solution and air-dried between mice. […]

How did the “S100B's impact on the level of oxidized proteins” value [1] turn out when “Synb1-ELP-TRTK: thermally responsive S100B inhibitory polypeptide: Synb1 cell penetrating peptide, elastin-like polypeptide (ELP) and TRTK12 peptide fused” was run?
The value was “significantly blocked”.

And the “hyperactivity, slip frequency, Sniff Up and down frequency” value (SCA1/+ mice)?
The value was “suppresses these activities”.
